Each molecule was assayed on Western Flower Thrips (Frankliniella occidentalis) (assay: Insecticidal test against western flower thrips, sprayed cucumber leaves (Test Example 3)). Settings: 500 ppm, sprayed 20 ml/cup onto cucumber, thirty larvae on cut first foliage leaves, after 7 days.
Assay type: in vivo
Experimental: A formulation of a test compound obtained in Formulation Example 5 was diluted with water so that the active ingredient concentration came to 500 ppm to prepare a test spray solution. The seeds of cucumber were planted in polyethylene cups and grown until their first foliage leaves developed, and the above test spray solution was sprayed at the rate of 20 ml/cup onto these cucumber plants. After the chemical solution sprayed onto the cucumber plants was dried, the first foliage leaves were cut off and placed on a water-containing filter paper (70 mm in diameter) in a polyethylene cup (110 mm in diameter). Thirty larvae of western flower thrips (Frankliniella occidentalis) were set free in the polyethylene cup, and the lid was put on the polyethylene cup. After 7 days, the number of surviving insects was examined.

Compound | number of surviving insects
C#CCOc1cc(Oc2cccc(C(F)(F)F)c2)ncn1 [(17)] | zero
CC#CCOc1ncnc(Oc2ccccc2F)c1F [(183)] | zero
C#CCOc1cc(Oc2cccc(C)c2)ncn1 [(29)] | zero
CC#CCOc1cc(Oc2c(F)cc(F)cc2F)ncn1 [(45)] | zero
C#CC(C)Oc1cc(-c2ccccc2F)ncn1 (centres unmarked) [(150)] | zero
CC#CCOc1cc(-c2cccc(F)c2F)ncn1 [(83)] | zero
C#CCOc1cc(Oc2ccc(C(F)(F)F)cc2)ncn1 [(20)] | zero
CC#CCOc1cc(Cc2c(F)cccc2F)ncn1 [(80)] | zero
CCC#CCOc1cc(OCC#CCC)ncn1 [(3)] | zero
C#CCOc1cc(OCc2ccccc2)ncn1 [(13)] | zero
CC#CCOc1cc(O[C@@H]2CCC[C@H]2C)ncn1 (relative stereo) [(169)] | zero
CC#CCOc1cc(Cc2ccccc2F)ncn1 [(88)] | zero
C#CCOc1cc(Oc2ccccc2)ncn1 [(51)] | zero
C#CCOc1cc(-c2ccccc2F)ncn1 [(54)] | zero

Reference: patent US7291730B2, “Pyrimidine compounds and their use” (Sumitomo Chemical Company, Limited, priority 2000, dated 2007)
